According to US20240010726A1, “LFA-1 SIGNALLING MEDIATOR FOR USE IN CANCER THERAPY” (Universität Basel, priority 2020, published 2024):

System: PSMA+ PC3-PIP cell line
Experiment: Cytotoxicity assay with anti-PSMA CAR T cells (IncuCyte)
Assay type: cell-based, human
Conditions: time-lapse killing; E:T 2:1; 0 mM vs 0.6 mM Mg^2+
Description: FIG. 3: Magnesium regulates LFA-1 mediated T cell activation and cytotoxicity as well BiTE- and CAR T-cell functionality. (a) Glycolytic switch of murine WT and LFA-1^-/- CTLs upon injection of anti-CD3/28 Ab in medium containing 1.2 mM Mg^2+ and 0 mM Mg^2+, presented as quantification of summarized data with n=4 mice. (b) Calcium flux in WT and LFA-1^-/- Jurkat T cells stimulated with anti-CD3 Ab in 1.2 mM and 0 mM Mg^2+ medium, respectively. Cells were loaded with Fluo4, and signal intensity as recorded by plate reader, was normalized to unstimulated baseline values. […] Quantified results of n=3 mice with 3 technical replicates each. […] The effector to target cell ratio was 3:1. Results are quantified of n=3 mice with 3 technical replicates each. (e) Representative CD11a (LFA-1) surface expression on human naïve and EM CD8 T cells, PHA T cell blasts and REP T cells, assessed by flow cytometry. […] The effector to target cell ratio was 1:1. Data is presented as quantified results of n=5 healthy donors (f, g, h), n=3 healthy donors with 2 technical replicates each or n=1 healthy donor with 4 technical replicates (j). […] Data is presented as quantified results of n=1 healthy donor with 4 technical replicates. […] (p) Abundance of IFNγ in cell culture supernatants corresponding to the conditions depicted in (o) at 24 hours was determined by ELISA (n=8, 3 independent experiments). […]

In the case of [Mg+2] [Mg^2+, Magnesium], the “Cytolytic activity of CAR T cells against tumor target cells” value is reported as “impaired the cytolytic activity”.
